The text below walks through data of patent US20140323418A1, “SELECTIVE KINASE INHIBITORS” (PORTOLA PHARMACEUTICALS, INC., priority 2011, published 2014).

The structures appear in SMILES notation.

This experiment concerns the target T1, full length active recombinant SYK enzyme (Homo sapiens, UniProt P43405).
T1 construct: full length active recombinant SYK enzyme (Millipore, Calif.); purchased Millipore
The experiment in a line: Inhibition of Syk tyrosine phosphorylation activity (LANCE TR-FRET kinase assay). It counts as biochemical. The following applies: 1 nM SYK, 550 nM substrate, 100 μM ATP, 1 hour room temperature.

`CC(C)[C@@H](Nc1ncc(C(N)=O)c(Nc2cccc(-n3nccn3)c2)n1)C1(N)CC1` [Example 138, (R)-4-(3-(2H-1,2,3-triazol-2-yl)phenylamino)-2-(1-(1-aminocyclopropyl)-2-methylpropylamino)pyrimidine-5-carboxamide]: the IC50 fell in the range of 1 to 10 nM.

On to `NC(=O)c1cnc(N[C@H]2CNC(=O)C2)nc1Nc1cccc(-n2nccn2)c1` [Example 230], for which the IC50 was in the range of 100 to 1000 nM.

As for `Cc1csc(Nc2nc(N[C@H](CC(C)C)C(N)=O)ncc2C(N)=O)c1` [Example 194, (R)-2-(1-amino-4-methyl-1-oxopentan-2-ylamino)-4-(4-methylthiophen-2-ylamino)pyrimidine-5-carboxamide], the IC50 lay within 10 to 100 nM.

Take `NC(=O)c1cnc(N[C@H](C2CC2)C2(N)CC2)nc1Nc1cccc(-n2cncn2)c1` [Example 163, (R)-4-(3-(1H-1,2,4-triazol-1-yl)phenylamino)-2-(1-(1-aminocyclopropyl)(cyclopropyl)methylamino)pyrimidine-5-carboxamide]: the IC50 was in the range of 1 to 10 nM.

For `Cc1cccc(Nc2nc(N[C@H]3[C@@H](N)CCCC3(F)F)ncc2C(N)=O)c1` [Example 39, 2-(((1S,6S)-6-amino-2,2-difluorocyclohexyl)amino)-4-(m-tolylamino)pyrimidine-5-carboxamide], the IC50 was 10 to 100 nM.

With `Cc1csc(Nc2nc(N[C@@H](C(N)=O)C(C)C)ncc2C(N)=O)c1` [Example 195, (R)-2-(1-amino-3-methyl-1-oxobutan-2-ylamino)-4-(4-methylthiophen-2-ylamino)pyrimidine-5-carboxamide], the IC50 was in the range of 1 to 10 nM.

For `NC(=O)c1cnc(N[C@H](C2CC2)C2(N)CC2)nc1Nc1cnc2ccccc2c1` [Example 152, (R)-2-(1-(1-aminocyclopropyl)(cyclopropyl)methylamino)-4-(quinolin-3-ylamino)pyrimidine-5-carboxamide], the IC50 was in the range of 1 to 10 nM.

`NC(=O)c1cnc(N[C@@H]2CCCC[C@@H]2N)nc1Nc1cc(-n2nccn2)c(Cl)cc1Cl` [Example 24, 2-((1R,2S)-2-aminocyclohexylamino)-4-(2,4-dichloro-5-(2H-1,2,3-triazol-2-yl)phenylamino)pyrimidine-5-carboxamide]: the IC50 was in the range of 10 to 100 nM.

As to `NC(=O)c1cnc(N[C@@H]2CCC[C@H](F)[C@@H]2N)nc1Nc1ccc2ncccc2c1` [Example 237, 2-((1R,2R,3S)-2-amino-3-fluorocyclohexylamino)-4-(quinolin-6-ylamino)pyrimidine-5-carboxamide], the IC50 was in the range of 10 to 100 nM.

As to `NC(=O)c1cnc(N[C@H]2[C@@H](N)CCCC2(F)F)nc1Nc1cccc(-c2ncccn2)c1` [Example 35, 2-(((1S,6S)-6-amino-2,2-difluorocyclohexyl)amino)-4-((3-(pyrimidin-2-yl)phenyl)amino)pyrimidine-5-carboxamide], the IC50 is 10 to 100 nM.

Regarding `COc1ccc(Nc2ncc(C(N)=O)c(N[C@H]3CC[C@H](N)CC3)n2)cc1` [Example 245, 4-(trans-4-aminocyclohexylamino)-2-(4-methoxyphenylamino)pyrimidine-5-carboxamide], the IC50 fell in the range of 100 to 1000 nM.

In the case of `NC(=O)c1cnc(NC[C@@H](N)CC(F)F)nc1Nc1cccc(-c2ncccn2)c1` [Example 95, (S)-2-(2-amino-4,4-difluorobutylamino)-4-(3-(pyrimidin-2-yl)phenylamino)pyrimidine-5-carboxamide], the IC50 fell in the range of 100 to 1000 nM.

As for `NC(=O)c1cnc(N[C@H]2CN[C@@H](CF)C2)nc1Nc1cccc(-n2nccn2)c1` [Example 229, 4-((3-(2H-1,2,3-triazol-2-yl)phenyl)amino)-2-(((3R,5R)-5-(fluoromethyl)pyrrolidin-3-yl)amino)pyrimidine-5-carboxamide], the IC50 lay within 100 to 1000 nM.

Turning to `Cc1cc2c(Nc3nc(NC[C@@H](N)CC(F)F)ncc3C(N)=O)cccc2n1C` [Example 87, (S)-2-(2-amino-4,4-difluorobutylamino)-4-(1,2-dimethyl-1H-indol-4-ylamino)pyrimidine-5-carboxamide], the IC50 fell in the range of 10 to 100 nM.

For `Cc1cccc(Nc2nc(N[C@@H]3CC[C@H](N)C3)ncc2C(N)=O)c1` [Example 119, 4-(m-toluidino)-2-((1R,3S)-3-aminocyclopentylamino)pyrimidine-5-carboxamide], the IC50 is 100 to 1000 nM.

In the case of `NC(=O)c1cnc(N[C@@H]2CCOC[C@@H]2N)nc1Nc1csc2ncccc12` [Example 179, 2-((3R,4R)-3-aminotetrahydro-2H-pyran-4-ylamino)-4-(thieno[2,3-b]pyridin-3-ylamino)pyrimidine-5-carboxamide], the IC50 fell in the range of 10 to 100 nM.

Take `NC(=O)c1cnc(N[C@H](C2CC2)C2(N)CC2)nc1Nc1cc(F)cc(F)c1` [Example 157, (R)-2-(1-(1-aminocyclopropyl)(cyclopropyl)methylamino)-4-(3,5-difluorophenylamino)pyrimidine-5-carboxamide]: the IC50 lay within 10 to 100 nM.

Take `N#Cc1ccc(Nc2nc(N[C@@H]3CCOC[C@@H]3N)ncc2C(N)=O)cc1` [Example 54, 2-(((3R,4R)-3-aminotetrahydro-2H-pyran-4-yl)amino)-4-((4-cyanophenyl)amino)pyrimidine-5-carboxamide]: the half-maximal inhibitory concentration (IC50) lay in the range of 100 to 1000 nM.

On to `CC(C)[C@@H](Nc1ncc(C(N)=O)c(Nc2cccc(-n3cccn3)c2)n1)C1(N)CC1` [Example 140, (R)-4-(3-(1H-pyrazol-1-yl)phenylamino)-2-(1-(1-aminocyclopropyl)-2-methylpropylamino)pyrimidine-5-carboxamide], for which the IC50 lay in the range of 1 to 10 nM.

For the compound `CC[C@@H](Nc1ncc(C(N)=O)c(Nc2cccc(-c3ncccn3)c2)n1)C1(N)CC1` [Example 131, (R)-2-(1-(1-aminocyclopropyl)propylamino)-4-(3-(pyrimidin-2-yl)phenylamino)pyrimidine-5-carboxamide], the IC50 was in the range of 1 to 10 nM.

With `CNC(=O)[C@@H]1C[C@@H](Nc2ncc(C(N)=O)c(Nc3cccc(C)c3)n2)CN1` [Example 218, 2-(((3R,5S)-5-(methylcarbamoyl)pyrrolidin-3-yl)amino)-4-(m-tolylamino)pyrimidine-5-carboxamide], the IC50 was above 1000 nM.

As for `NC(=O)c1cnc(N[C@@H]2[C@H](F)CCC[C@@H]2N)nc1Nc1cccc(-n2nccn2)c1` (racemic) [Example 175, (±)-4-(3-(2H-1,2,3-triazol-1-yl)phenylamino)-2-((1S,2S,6R)-2-amino-6-fluorocyclohexylamino)pyrimidine-5-carboxamide], the IC50 was 10 to 100 nM.

In the case of `CCC[C@@H](Nc1ncc(C(N)=O)c(Nc2cccc(OC)c2)n1)C(N)=O` [Example 61, (R)-2-((1-amino-1-oxopentan-2-yl)amino)-4-((3-methoxyphenyl)amino)pyrimidine-5-carboxamide], the IC50 was in the range of 100 to 1000 nM.

With `NC(=O)c1cnc(N[C@@H]2CCC[C@H](F)[C@@H]2N)nc1Nc1cccc(-n2nccn2)c1` (racemic) [Example 174], the IC50 was in the range of 10 to 100 nM.

As for `Cn1cc(C#N)c2c(Nc3nc(N[C@@H]4CCCC[C@@H]4N)ncc3C(N)=O)cccc21` [Example 103, 2-((1R,2S)-2-aminocyclohexylamino)-4-(3-cyano-1-methyl-1H-indol-4-ylamino)pyrimidine-5-carboxamide], the IC50 fell in the range of 100 to 1000 nM.

Take `NC(=O)c1cnc(N[C@@H]2CCOC[C@@H]2N)nc1Nc1ccc2ncsc2c1` [Example 181, 2-((3R,4R)-3-aminotetrahydro-2H-pyran-4-ylamino)-4-(benzo[d]thiazol-6-ylamino)pyrimidine-5-carboxamide]: the IC50 lay within 10 to 100 nM.

With `Cn1ccc2c(Nc3nc(NC4CCCCC4)ncc3C(N)=O)cccc21` [Example 108, 2-(cyclohexylamino)-4-(1-methyl-1H-indol-4-ylamino)pyrimidine-5-carboxamide], the IC50 fell in the range of 100 to 1000 nM.

Consider `Cc1cccc(Nc2nc(NCC(N)C(C)(F)F)ncc2C(N)=O)c1` (centres unmarked) [Example 105, 4-(m-toluidino)-2-(2-amino-3,3-difluorobutylamino)pyrimidine-5-carboxamide], for which the IC50 was in the range of 100 to 1000 nM.

Regarding `CC[C@@H](Nc1ncc(C(N)=O)c(Nc2ccc(-c3cncs3)cc2)n1)C(N)=O` [Example 58, (R)-2-((1-amino-1-oxobutan-2-yl)amino)-4-((4-(thiazol-5-yl)phenyl)amino)pyrimidine-5-carboxamide], the IC50 is 10 to 100 nM.

Take `NC(=O)c1cnc(N[C@@H]2CCCC[C@@H]2N)nc1Nc1ccc2cccnc2c1` [Example 75, 2-((1R,2S)-2-aminocyclohexylamino)-4-(quinolin-7-ylamino)pyrimidine-5-carboxamide]: the IC50 fell in the range of 10 to 100 nM.

As for `Cn1ccc2c(Nc3nc(NC[C@@H](N)CC(F)F)ncc3C(N)=O)cccc21` [Example 85, (S)-2-(2-amino-4,4-difluorobutylamino)-4-(1-methyl-1H-indol-4-ylamino)pyrimidine-5-carboxamide], the IC50 is 1 to 10 nM.

Turning to `Cc1ccc(Nc2nc(NC[C@@H](N)CC(F)F)ncc2C(N)=O)cc1` [Example 83, (S)-4-(p-toluidino)-2-(2-amino-4,4-difluorobutylamino)pyrimidine-5-carboxamide], the IC50 was in the range of 100 to 1000 nM.

Turning to `CC(NC1CCCC[C@H]1Nc1ncc(C(N)=O)c(Nc2cccc(-n3nccn3)c2)n1)N[C@H]1CCCC[C@H]1Nc1ncc(C(N)=O)c(Nc2cccc(-n3nccn3)c2)n1` (stereo partly drawn) [Example 15, 2,2′-(1R,1′R,2S,2′S)-2,2′-(ethane-1,1-diylbis(azanediyl))bis(cyclohexane-2,1-diyl)bis(azanediyl)bis(4-(3-(2H-1,2,3-triazol-2-yl)phenylamino)pyrimidine-5-carboxamide)], the IC50 fell in the range of 100 to 1000 nM.

Consider `CCN1CCc2c(Nc3nc(N[C@@H](CN)C4CC4)ncc3C(N)=O)cccc21` [Example 99, (R)-2-(2-amino-1-cyclopropylethylamino)-4-(1-ethylindolin-4-ylamino)pyrimidine-5-carboxamide], for which the IC50 is 10 to 100 nM.

Turning to `CN1CCCc2cc(Nc3nc(N[C@H]4CN[C@@H](CO)C4)ncc3C(N)=O)ccc21` [Example 220, 2-(((3R,5R)-5-(hydroxymethyl)pyrrolidin-3-yl)amino)-4-((1-methyl-1,2,3,4-tetrahydroquinolin-6-yl)amino)pyrimidine-5-carboxamide], the IC50 lay within 10 to 100 nM.
